Measurements reported in US12276654B2, “Chemical probe-dependent evaluation of protein activity and uses thereof” (The University of Chicago, priority 2017, dated 2025).

Target: T1, FAAH (Homo sapiens, UniProt O00519)
T1 construct: endogenous in cells
T1 sequence (O00519 1-579): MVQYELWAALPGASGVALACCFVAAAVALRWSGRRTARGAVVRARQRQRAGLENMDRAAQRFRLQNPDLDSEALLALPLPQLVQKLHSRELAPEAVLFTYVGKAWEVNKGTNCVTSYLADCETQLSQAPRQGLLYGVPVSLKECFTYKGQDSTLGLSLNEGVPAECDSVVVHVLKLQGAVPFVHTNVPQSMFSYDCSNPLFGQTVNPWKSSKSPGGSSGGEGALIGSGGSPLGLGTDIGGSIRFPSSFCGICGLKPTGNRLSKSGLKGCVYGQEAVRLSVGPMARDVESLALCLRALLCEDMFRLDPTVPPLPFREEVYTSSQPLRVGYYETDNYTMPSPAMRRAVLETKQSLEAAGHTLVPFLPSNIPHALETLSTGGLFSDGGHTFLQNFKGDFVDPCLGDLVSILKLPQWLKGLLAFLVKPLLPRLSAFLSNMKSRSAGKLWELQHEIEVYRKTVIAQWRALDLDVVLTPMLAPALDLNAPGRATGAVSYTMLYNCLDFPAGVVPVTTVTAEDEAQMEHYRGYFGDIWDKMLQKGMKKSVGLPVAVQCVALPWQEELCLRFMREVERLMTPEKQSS
Assay: sADPL in situ target engagement in cancer cells, FAAH
Type: cell-based
Details: inhibitor prior to family-wide probe
Protocol: FIG. 23. In situ Target Engagement. Cancer cells were treated with DMSO as the control, with inhibitor prior to family wide probe to pre-block the active site, or with family-wide probe directly. Then sADPL workflow was applied to read out the CT difference. Serine hydrolase NCEH1 and its specific inhibitor JW480, or FAAH and inhibitor PF3845 were applied. The activity fold change was transformed from CT value with PCR amplification factor 1.91 determined by a standard qPCR curve and the activities were normalized to DMSO control at different cell lysate concentrations. […] To quantitatively measure the target engagement, different dose of JW480 was applied to either its target NCEH1, or off-target MGLL.
As another alternative detection method, sADPL is complementary with gel-based and MS-based detection methods. In this design, the inventors treat the live cell with several family-wide probes. The probes will label all the members of the protein families. Then one could get the labeled proteome after the cell lysis. […]
A summary of this assay is provided below: • 1. […] In the oligo design, the orthogonal forward primers were employed for different antibody to enable the multiplexing real time PCR readout. […]
Two amine modified oligos were conjugated to antibody and streptavidin, respectively. […] A Taqman probe was designed for real time PCR quantification. […]

O=C(Nc1cccnc1)N1CCC(Cc2cccc(Oc3ccc(C(F)(F)F)cn3)c2)CC1 [PF3845]
FAAH activity in inhibitor competition group by sADPL, normalized to DMSO control: bring the activities down to the levels of DMSO controls
